Where “and” joins values, the source holds several entries; their conditions need not be identical. Equal entries are not always repeated.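 Following 48 hours of exposure in 96-well plates, responses at five concentrations were used to interpolate endpoints linearly. GI50 marks 50% less growth. TGI is the concentration that stops growth completely.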

Common to all, as to experiment: NCI tumour cell line growth inhibition, 48 h
In assay [1] the test system is NCI-H226 lung.
Assay [2] concerns OVCAR-8 ovarian.
Assay [3] has as its system OVCAR-4 ovarian.
In assay [4] the test system is 786-0 renal.
In assay [5] the test system is K-562 leukemia.
Assay [6] has as its system HS 578T breast.
The subject of assay [7] is TK-10 renal.
Assay [8] deals with UACC-257 melanoma.
Assay [9] has as its system SNB-19 CNS.
In assay [10] the test system is A549 NSCLC.

As for `COc1ccc([C@@]23Oc4cc(OC)cc(OC)c4[C@]2(O)[C@H](O)[C@H](C(N)=O)[C@H]3c2ccccc2)cc1`, the TGI in assay [1] is 0.0935 µM and < 0.0283 µM; in assay [4], 0.291 µM; in assay [5], more than 100 µM; in assay [6], 0.0914 µM and < 0.01 µM; in assay [7], 0.101 µM and 0.0367 µM; in [8], 0.206 µM and < 0.0304 µM. In assay [9], this compound had a TGI of 0.0999 µM. The GI50 in assay [2] is less than 0.0122 µM; in assay [3] it was 0.0142 µM; in assay [4], 0.018 µM; in assay [6] it was less than 0.0135 µM; in [7], 0.0278 µM.

For `Cn1c2c(c3ccccc31)CCN1C(=O)CCC21` (centres undefined), the TGI in assay [1], in [2], in assay [3], in assay [4], in assay [5] and in [6] was more than 10 µM throughout. In addition, the TGI in [7], in assay [8] and in assay [9] was more than 10 µM each time.

`COc1c(-c2ccccc2)nc2ccc(Oc3ccccc3)nn12`: the TGI in assay [1] was 98.1 µM; in assay [2], more than 100 µM; in assay [3] it was more than 71.3 µM; in assay [4], more than 100 µM; in assay [5], more than 100 µM; in assay [7], more than 100 µM. Also, the TGI in assay [10] is more than 100 µM; in [8] it was more than 96.5 µM; in [9], more than 100 µM.

On to `Clc1cccc(-c2nnc(-c3nn(-c4ccccc4)c4nc5ccccc5nc34)o2)c1`, for which the TGI in [1], in [2], in assay [3], in assay [4], in assay [5] and in assay [7] was more than 100 µM each time. The TGI in [10], in [8] and in assay [9] was more than 100 µM each time.

Consider `CCNC(=O)OCc1c(COC(=O)NCC)c(-c2ccc(Cl)c(Cl)c2)n2c1CCC2`, for which the TGI in [1] stood at 7.85 µM; in assay [2], 41.7 µM; in assay [3], 36.1 µM; in assay [4], 33.5 µM; in assay [5], 37.8 µM; in assay [7] it was 54.5 µM. For the same compound, the TGI in assay [10] turned out to be 82.3 µM; in assay [8], 83.8 µM; in [9], 68.1 µM.

For `CCN(CC)CCCC(C)N/C(=C1\C(=O)NC(=O)\C1=C(/NC(C)CCCN(CC)CC)c1cccc(OC)c1)c1cccc(OC)c1` (centres undefined), the GI50 in assay [1] is 1.29 µM; in [2], 0.515 µM; in [3] it was 0.742 µM; in assay [4] it was 0.833 µM; in [5], 0.581 µM; in assay [6] it was 1.11 µM. Besides, the GI50 is 0.819 µM in assay [10], 0.842 µM in [8] and 1.99 µM in assay [9]. Besides, the TGI amounted to 5.9 µM in assay [1]; 3.09 µM in [2]; 2.2 µM in assay [3]; 2.64 µM in [4]; 3.86 µM in assay [5]; 3.22 µM in [6]. The TGI in assay [10] was found to be 1.8 µM; in assay [8], 1.58 µM; in assay [9], 9.01 µM.

Regarding `Cc1cn(Cc2ccc(C34CC5CC(CC(C5)C3)C4)c(O)c2)c(=O)[nH]c1=O`, the GI50 in assay [1] was 15.4 µM; in [3], 12.9 µM; in [4], 12.6 µM; in assay [5], 2.99 µM; in assay [6], 8.42 µM; in [7] it was 14.7 µM. Also, the GI50 in assay [9] was 13.9 µM. For the same compound, the TGI was 29.9 µM in assay [1]; 32.1 µM in assay [3]; 27 µM in assay [4]; 11 µM in assay [5]; 33.8 µM in [6]; 32.2 µM in [7]. The same compound returned a TGI in assay [9] of 31.1 µM.

For `CCOc1ccccc1N=Nc1c(-c2ccccc2)nn(C(=O)CC(=O)Nc2cccc(C)c2)c1-c1ccccc1`, the TGI in assay [1], in assay [2], in [3], in assay [4], in assay [5] and in [7] was more than 100 µM throughout. Further, the TGI in assay [10], in [8] and in [9] was more than 100 µM in each case.

`N#CC(C(=O)/C(=N\NC(N)=O)C(C#N)c1ccccc1)c1ccccc1` (centres undefined): the TGI in assay [1], in assay [2], in assay [3], in assay [4], in assay [5] and in assay [7] was more than 100 µM each time. Besides, the TGI in assay [10], in [8] and in assay [9] was more than 100 µM in each case.

Turning to `CC(C)COc1nc2c(c(=O)n(C)c(=O)n2C)n1C`, the GI50 in assay [1] was more than 100 µM; in assay [2], more than 100 µM; in assay [3] it was more than 100 µM; in assay [4] it was more than 100 µM; in assay [5], more than 100 µM; in assay [6], 64.1 µM. Besides, the GI50 in assay [10], in assay [8] and in [9] was more than 100 µM each time. Further, the TGI in assay [1], in [2], in assay [3], in assay [4], in assay [5] and in [6] was more than 100 µM throughout. The TGI in [10], in assay [8] and in assay [9] was more than 100 µM in each case.

For `O=C(NCC1CCCO1)c1ccc(NC2=C(Cl)C(=O)N(Cc3ccccc3)C2=O)cc1` (centres undefined), the GI50 in [1] is 11.8 µM; in assay [2] it was 16.7 µM; in [3], 19.2 µM; in [4], 15.2 µM; in assay [5], 11.1 µM; in assay [6], 22.1 µM. The GI50 is 19.1 µM in [10], 17 µM in assay [8] and 21.5 µM in [9]. The TGI in assay [1] turned out to be 26.7 µM; in assay [2], 54.6 µM; in assay [3], 44.6 µM; in [4], 28.6 µM; in assay [5], 34.3 µM; in [6] it was 65.3 µM. The values for the TGI in assay [10], in assay [8] and in assay [9] were 50.5 µM, 45.6 µM and 45.1 µM, respectively.

(Values after PubChem BioAssay (NCI).)
